According to PubChem BioAssay (NCI):
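The compound was tested at five concentrations on cells cultured in 96-well plates, with a 48-hour exposure period. TGI marks complete inhibition of growth.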

Columns and labels:
Assay in all cases: NCI-60 cell line screen, 48 h
786-0 renal = system: 786-0 renal
A549 NSCLC = system: A549 NSCLC
ACHN renal = system: ACHN renal
BT-549 breast = system: BT-549 breast
CCRF-CEM leukemia = system: CCRF-CEM leukemia
COLO 205 colon = system: COLO 205 colon
DU-145 prostate = system: DU-145 prostate
EKVX NSCLC = system: EKVX NSCLC
HCC-2998 colon = system: HCC-2998 colon
HCT-116 colon = system: HCT-116 colon
HL-60(TB) leukemia = system: HL-60(TB) leukemia
HOP-62 NSCLC = system: HOP-62 NSCLC
HS 578T breast = system: HS 578T breast
HT29 colon = system: HT29 colon
IGROV1 ovarian = system: IGROV1 ovarian
K-562 leukemia = system: K-562 leukemia
KM12 colon = system: KM12 colon
LOX IMVI melanoma = system: LOX IMVI melanoma
M14 melanoma = system: M14 melanoma
MALME-3M melanoma = system: MALME-3M melanoma
MCF7 breast = system: MCF7 breast
MDA-MB-435 = system: MDA-MB-435
MDA-N = system: MDA-N
MOLT-4 leukemia = system: MOLT-4 leukemia
NCI-H226 lung = system: NCI-H226 lung
NCI-H23 lung = system: NCI-H23 lung
NCI-H460 lung = system: NCI-H460 lung
NCI-H522 lung = system: NCI-H522 lung
NCI/ADR-RES ovarian = system: NCI/ADR-RES ovarian
OVCAR-3 ovarian = system: OVCAR-3 ovarian
OVCAR-5 ovarian = system: OVCAR-5 ovarian
OVCAR-8 ovarian = system: OVCAR-8 ovarian
PC-3 prostate = system: PC-3 prostate
RPMI-8226 leukemia = system: RPMI-8226 leukemia
RXF 393 renal = system: RXF 393 renal
SF-268 CNS = system: SF-268 CNS
SF-295 CNS = system: SF-295 CNS
SF-539 CNS = system: SF-539 CNS
SK-MEL-2 melanoma = system: SK-MEL-2 melanoma
SK-MEL-28 melanoma = system: SK-MEL-28 melanoma
SK-MEL-5 melanoma = system: SK-MEL-5 melanoma
SNB-19 CNS = system: SNB-19 CNS
SNB-75 CNS = system: SNB-75 CNS
SR leukemia = system: SR leukemia
SW-620 colon = system: SW-620 colon
TK-10 renal = system: TK-10 renal
U251 CNS = system: U251 CNS
UACC-257 melanoma = system: UACC-257 melanoma
UACC-62 melanoma = system: UACC-62 melanoma
UO-31 renal = system: UO-31 renal
A498 renal = system: A498 renal
CAKI-1 renal = system: CAKI-1 renal
HCT-15 colon = system: HCT-15 colon
HOP-92 NSCLC = system: HOP-92 NSCLC
OVCAR-4 ovarian = system: OVCAR-4 ovarian
SK-OV-3 ovarian = system: SK-OV-3 ovarian
SN12C renal = system: SN12C renal
T-47D breast = system: T-47D breast
MDA-MB-231 breast = system: MDA-MB-231 breast

CCOC(=O)C(=[N+]=[N-])C(=O)CN1C(=O)C2CC(C)=C(C)CC2C1O (configuration not stated)
TGI (786-0 renal): > 100 µM
TGI (A549 NSCLC): > 100 µM
TGI (ACHN renal): > 100 µM
TGI (BT-549 breast): > 100 µM
TGI (CCRF-CEM leukemia): > 100 µM
TGI (COLO 205 colon): > 100 µM
TGI (DU-145 prostate): > 100 µM
TGI (EKVX NSCLC): > 100 µM
TGI (HCC-2998 colon): > 100 µM
TGI (HCT-116 colon): > 100 µM
TGI (HL-60(TB) leukemia): > 100 µM
TGI (HOP-62 NSCLC): > 100 µM
TGI (HS 578T breast): > 100 µM
TGI (HT29 colon): > 100 µM
TGI (IGROV1 ovarian): > 100 µM
TGI (K-562 leukemia): > 100 µM
TGI (KM12 colon): > 100 µM
TGI (LOX IMVI melanoma): > 100 µM
TGI (M14 melanoma): > 100 µM
TGI (MALME-3M melanoma): > 100 µM
TGI (MCF7 breast): > 100 µM
TGI (MDA-MB-435): > 100 µM
TGI (MDA-N): > 100 µM
TGI (MOLT-4 leukemia): > 100 µM
TGI (NCI-H226 lung): > 100 µM
TGI (NCI-H23 lung): > 100 µM
TGI (NCI-H460 lung): > 100 µM
TGI (NCI-H522 lung): > 100 µM
TGI (NCI/ADR-RES ovarian): > 100 µM
TGI (OVCAR-3 ovarian): > 100 µM
TGI (OVCAR-5 ovarian): > 100 µM
TGI (OVCAR-8 ovarian): > 100 µM
TGI (PC-3 prostate): > 100 µM
TGI (RPMI-8226 leukemia): > 100 µM
TGI (RXF 393 renal): > 100 µM
TGI (SF-268 CNS): > 100 µM
TGI (SF-295 CNS): > 100 µM
TGI (SF-539 CNS): > 100 µM
TGI (SK-MEL-2 melanoma): > 100 µM
TGI (SK-MEL-28 melanoma): > 100 µM
TGI (SK-MEL-5 melanoma): > 100 µM
TGI (SNB-19 CNS): > 100 µM
TGI (SNB-75 CNS): > 100 µM
TGI (SR leukemia): > 100 µM
TGI (SW-620 colon): > 100 µM
TGI (TK-10 renal): > 100 µM
TGI (U251 CNS): > 100 µM
TGI (UACC-257 melanoma): > 100 µM
TGI (UACC-62 melanoma): > 100 µM
TGI (UO-31 renal): > 100 µM

COc1cc2cc(C(=O)N3CC(CCl)c4c3cc(NCCN)c3ccccc43)[nH]c2c(OC)c1OC (configuration not stated)
TGI (A498 renal): < 0.0136 µM
TGI (ACHN renal): < 0.01 µM
TGI (BT-549 breast): 0.0817 µM
TGI (CAKI-1 renal): < 0.01 µM
TGI (COLO 205 colon): < 0.01 µM
TGI (DU-145 prostate): 1.07 µM
TGI (EKVX NSCLC): 0.0789 µM
TGI (HCT-15 colon): 0.0536 µM
TGI (HOP-62 NSCLC): < 0.0221 µM
TGI (HOP-92 NSCLC): < 0.01 µM
TGI (KM12 colon): < 0.01 µM
TGI (M14 melanoma): < 0.0121 µM
TGI (MALME-3M melanoma): < 0.0134 µM
TGI (MCF7 breast): < 0.01 µM
TGI (MDA-MB-435): < 0.01 µM
TGI (MDA-N): < 0.0203 µM
TGI (NCI-H23 lung): < 0.01 µM
TGI (NCI-H522 lung): < 0.01 µM
TGI (NCI/ADR-RES ovarian): 0.0799 µM
TGI (OVCAR-4 ovarian): 0.054 µM
TGI (PC-3 prostate): < 0.0328 µM
TGI (SF-268 CNS): 0.484 µM
TGI (SF-295 CNS): < 0.0468 µM
TGI (SK-MEL-2 melanoma): < 0.01 µM
TGI (SK-MEL-28 melanoma): 0.564 µM
TGI (SK-OV-3 ovarian): 1.42 µM
TGI (SN12C renal): < 0.017 µM
TGI (SNB-75 CNS): 0.0479 µM
TGI (SR leukemia): > 100 µM
TGI (SW-620 colon): 0.311 µM
TGI (T-47D breast): 1070 nM
TGI (TK-10 renal): < 0.0181 µM
TGI (U251 CNS): < 0.01 µM
TGI (UACC-62 melanoma): < 0.01 µM
TGI (UO-31 renal): < 0.0132 µM

CC(=O)OC12c3ccccc3-c3ccccc3C1C(C(=O)O)C2(Cl)C(=O)O (configuration not stated)
TGI (786-0 renal): > 10 µM
TGI (A498 renal): > 10 µM
TGI (ACHN renal): > 10 µM
TGI (CAKI-1 renal): > 10 µM
TGI (CCRF-CEM leukemia): > 10 µM
TGI (COLO 205 colon): > 10 µM
TGI (DU-145 prostate): > 10 µM
TGI (EKVX NSCLC): > 10 µM
TGI (HCC-2998 colon): > 10 µM
TGI (HCT-15 colon): > 10 µM
TGI (HL-60(TB) leukemia): > 10 µM
TGI (HOP-62 NSCLC): > 10 µM
TGI (HOP-92 NSCLC): > 10 µM
TGI (HS 578T breast): > 10 µM
TGI (HT29 colon): > 10 µM
TGI (IGROV1 ovarian): > 10 µM
TGI (K-562 leukemia): > 10 µM
TGI (KM12 colon): > 10 µM
TGI (LOX IMVI melanoma): > 10 µM
TGI (M14 melanoma): > 10 µM
TGI (MALME-3M melanoma): > 10 µM
TGI (MCF7 breast): > 10 µM
TGI (MDA-MB-231 breast): > 10 µM
TGI (MDA-MB-435): > 10 µM
TGI (MDA-N): > 10 µM
TGI (MOLT-4 leukemia): > 10 µM
TGI (NCI-H226 lung): > 10 µM
TGI (NCI-H23 lung): > 10 µM
TGI (NCI-H460 lung): > 10 µM
TGI (NCI-H522 lung): > 10 µM
TGI (NCI/ADR-RES ovarian): > 10 µM
TGI (OVCAR-3 ovarian): > 10 µM
TGI (OVCAR-4 ovarian): > 10 µM
TGI (OVCAR-5 ovarian): > 10 µM
TGI (OVCAR-8 ovarian): > 10 µM
TGI (PC-3 prostate): > 10 µM
TGI (RPMI-8226 leukemia): > 10 µM
TGI (RXF 393 renal): > 10 µM
TGI (SF-268 CNS): > 10 µM
TGI (SF-295 CNS): > 10 µM
TGI (SF-539 CNS): > 10 µM
TGI (SK-MEL-2 melanoma): > 10 µM
TGI (SK-MEL-28 melanoma): > 10 µM
TGI (SK-MEL-5 melanoma): > 10 µM
TGI (SK-OV-3 ovarian): > 10 µM
TGI (SN12C renal): > 10 µM
TGI (SNB-19 CNS): > 10 µM
TGI (SNB-75 CNS): > 10 µM
TGI (SR leukemia): > 10 µM
TGI (SW-620 colon): > 10 µM
TGI (T-47D breast): > 10000 nM
TGI (TK-10 renal): > 10 µM
TGI (U251 CNS): > 10 µM
TGI (UACC-257 melanoma): > 10 µM
TGI (UO-31 renal): > 10 µM

CN(C)c1ccc(-c2c(C#N)c(O)n(NS(=O)(=O)c3ccccc3)c(=O)c2C#N)cc1
TGI (786-0 renal): > 100 µM
TGI (A498 renal): > 100 µM
TGI (A549 NSCLC): > 100 µM
TGI (ACHN renal): > 100 µM
TGI (BT-549 breast): > 100 µM
TGI (CAKI-1 renal): > 100 µM
TGI (CCRF-CEM leukemia): > 100 µM
TGI (COLO 205 colon): > 100 µM
TGI (EKVX NSCLC): > 100 µM
TGI (HCC-2998 colon): > 100 µM
TGI (HCT-116 colon): > 100 µM
TGI (HCT-15 colon): > 100 µM
TGI (HL-60(TB) leukemia): > 100 µM
TGI (HOP-62 NSCLC): > 100 µM
TGI (HOP-92 NSCLC): > 100 µM
TGI (HS 578T breast): > 100 µM
TGI (HT29 colon): > 100 µM
TGI (IGROV1 ovarian): > 100 µM
TGI (K-562 leukemia): > 100 µM
TGI (KM12 colon): > 100 µM
TGI (LOX IMVI melanoma): > 100 µM
TGI (M14 melanoma): > 100 µM
TGI (MALME-3M melanoma): > 100 µM
TGI (MCF7 breast): > 100 µM
TGI (MDA-MB-231 breast): > 100 µM
TGI (MDA-MB-435): > 100 µM
TGI (MDA-N): > 100 µM
TGI (MOLT-4 leukemia): > 100 µM
TGI (NCI-H226 lung): > 100 µM
TGI (NCI-H460 lung): > 100 µM
TGI (NCI-H522 lung): > 100 µM
TGI (NCI/ADR-RES ovarian): > 100 µM
TGI (OVCAR-4 ovarian): > 100 µM
TGI (OVCAR-5 ovarian): > 100 µM
TGI (OVCAR-8 ovarian): > 100 µM
TGI (PC-3 prostate): > 100 µM
TGI (RPMI-8226 leukemia): > 100 µM
TGI (RXF 393 renal): > 100 µM
TGI (SF-268 CNS): > 100 µM
TGI (SF-539 CNS): > 100 µM
TGI (SK-MEL-2 melanoma): > 100 µM
TGI (SK-MEL-28 melanoma): > 100 µM
TGI (SK-MEL-5 melanoma): > 100 µM
TGI (SK-OV-3 ovarian): 37 µM
TGI (SN12C renal): > 100 µM
TGI (SNB-19 CNS): > 100 µM
TGI (SNB-75 CNS): > 100 µM
TGI (SW-620 colon): > 100 µM
TGI (TK-10 renal): > 100 µM
TGI (U251 CNS): > 100 µM
TGI (UACC-257 melanoma): > 100 µM
TGI (UACC-62 melanoma): > 100 µM
